# Test results published in ChEMBL document CHEMBL1201861, “Genomics of Drug Sensitity in Cancer screening data, Wellcome Trust Sanger Institute”.
# Assays:
# Experiment in all cases: cells
# NCI-H1650 = assay type: functional, cell-based, Homo sapiens; settings: Homo sapiens, NCI-H1650;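 note: growth inhibition of human NCI-H1650 cells measured by a cell viability assay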
# Description: SANGER: Inhibition of human NCI-H1650 cell growth in a cell viability assay.
# NCI-H526 = assay type: functional, cell-based, Homo sapiens; settings: Homo sapiens, NCI-H526;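 note: growth inhibition of the human NCI-H526 cell line, measured by a cell viability assay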
# Description: SANGER: Inhibition of human NCI-H526 cell growth in a cell viability assay.
# no-10 = assay type: functional, cell-based, Homo sapiens; settings: Homo sapiens;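 note: growth inhibition of no-10 cells, read out with a cell viability assay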
# Description: SANGER: Inhibition of human no-10 cell growth in a cell viability assay.
# LS-411N = assay type: functional, cell-based, Homo sapiens; settings: Homo sapiens, LS-411N
# TGBC24TKB = assay type: functional, cell-based; settings: Homo sapiens;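 note: growth inhibition of human TGBC24TKB cells, read out with a cell viability assay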
# Description: SANGER: Inhibition of human TGBC24TKB cell growth in a cell viability assay.
# LB2241-RCC = assay type: functional, cell-based, Homo sapiens; settings: Homo sapiens, LB2241-RCC;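 note: cell viability assay measuring how strongly the cultured human renal carcinoma line is prevented from growing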
# Description: SANGER: Inhibition of human LB2241-RCC cell growth in a cell viability assay.
# DMS-114 = assay type: functional, cell-based, Homo sapiens; settings: Homo sapiens, DMS-114
# ES3 = assay type: functional, cell-based, Homo sapiens; settings: Homo sapiens, ES3;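 note: growth inhibition of ES3 cells, read out with a cell viability assay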
# Description: SANGER: Inhibition of human ES3 cell growth in a cell viability assay.
# DEL = assay type: functional, cell-based, Homo sapiens; settings: Homo sapiens, DEL;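 note: growth inhibition of the human DEL cell line, read out with a cell viability assay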
# Description: SANGER: Inhibition of human DEL cell growth in a cell viability assay.
# BE-13 = assay type: functional, cell-based, Homo sapiens; settings: Homo sapiens, BE-13;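 note: growth inhibition of human BE-13 cells, measured with a cell viability assay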
# Description: SANGER: Inhibition of human BE-13 cell growth in a cell viability assay.
# COLO-684 = assay type: functional, cell-based, Homo sapiens; settings: Homo sapiens, COLO-684
# Description: SANGER: Inhibition of human COLO-684 cell growth in a cell viability assay.
# 8-MG-BA = assay type: functional, cell-based, Homo sapiens; settings: Homo sapiens, 8-MG-BA;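 note: growth inhibition of 8-MG-BA cells, read out with a cell viability assay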
# Description: SANGER: Inhibition of human 8-MG-BA cell growth in a cell viability assay.
# K5 = assay type: functional, cell-based, Homo sapiens; settings: Homo sapiens, K5
# Description: SANGER: Inhibition of human K5 cell growth in a cell viability assay.
# TE-11 = assay type: functional, cell-based; settings: Homo sapiens;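 note: growth inhibition of human TE-11 cells, read out by a cell viability assay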
# Description: SANGER: Inhibition of human TE-11 cell growth in a cell viability assay.
# D-247MG = assay type: functional, cell-based; settings: Homo sapiens
# Description: SANGER: Inhibition of human D-247MG cell growth in a cell viability assay.
# LS-123 = assay type: functional, cell-based, Homo sapiens; settings: Homo sapiens, LS-123
# Description: SANGER: Inhibition of human LS-123 cell growth in a cell viability assay.
# COLO-824 = assay type: functional, cell-based, Homo sapiens; settings: Homo sapiens, COLO-824
# Description: SANGER: Inhibition of human COLO-824 cell growth in a cell viability assay.
# C2BBe1 = assay type: functional, cell-based, Homo sapiens; settings: Homo sapiens, C2BBe1;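 note: growth inhibition of C2BBe1 cells, read out through a viability assay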
# Description: SANGER: Inhibition of human C2BBe1 cell growth in a cell viability assay.
# GB-1 = assay type: functional, cell-based, Homo sapiens; settings: Homo sapiens, GB-1;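 note: growth of GB-1 cells judged by a viability assay, IC50 marks the concentration inhibiting growth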
# Description: SANGER: Inhibition of human GB-1 cell growth in a cell viability assay.
# BT-474 = assay type: functional, cell-based, Homo sapiens; settings: Homo sapiens, BT-474
# Description: SANGER: Inhibition of human BT-474 cell growth in a cell viability assay.
# DB = assay type: functional, cell-based, Homo sapiens; settings: Homo sapiens, DB
# Description: SANGER: Inhibition of human DB cell growth in a cell viability assay.
# GCIY = assay type: functional, cell-based, Homo sapiens; settings: Homo sapiens, GCIY;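 note: growth inhibition of the human GCIY cell line, read out by a cell viability assay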
# Description: SANGER: Inhibition of human GCIY cell growth in a cell viability assay.
# SF-268 = assay type: functional, cell-based, Homo sapiens; settings: Homo sapiens, SF-268;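 note: growth inhibition of SF-268 cells determined with a cell viability assay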
# Description: SANGER: Inhibition of human SF268 cell growth in a cell viability assay.
# DSH1 = assay type: functional, cell-based; settings: Homo sapiens;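 note: growth inhibition of human DSH1 cells, measured with a cell viability readout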
# Description: SANGER: Inhibition of human DSH1 cell growth in a cell viability assay.
# BB65-RCC = assay type: functional, cell-based, Homo sapiens; settings: Homo sapiens, BB65-RCC;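 note: growth inhibition of the cell line, measured with a cell viability assay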
# Description: SANGER: Inhibition of human BB65-RCC cell growth in a cell viability assay.
# TGW = assay type: functional, cell-based, Homo sapiens; settings: Homo sapiens, TGW;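 note: growth inhibition of human TGW cells, read out with a cell viability assay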
# Description: SANGER: Inhibition of human TGW cell growth in a cell viability assay.
# SJSA-1 = assay type: functional, cell-based, Homo sapiens; settings: Homo sapiens, SJSA-1;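 note: growth inhibition of human SJSA-1 cells, read out through a cell viability measurement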
# Description: SANGER: Inhibition of human SJSA-1 cell growth in a cell viability assay.
# HH = assay type: functional, cell-based, Homo sapiens; settings: Homo sapiens, HH
# Description: SANGER: Inhibition of human HH cell growth in a cell viability assay.
# A253 cell line = assay type: functional, cell-based, Homo sapiens; settings: Homo sapiens, A253;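 note: growth inhibition of A253 cells, read out with a cell viability assay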
# Description: SANGER: Inhibition of human A253 cell growth in a cell viability assay.
# ES8 = assay type: functional, cell-based, Homo sapiens; settings: Homo sapiens, ES8;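 note: growth inhibition of human ES8 cells, read out with a cell viability assay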
# Description: SANGER: Inhibition of human ES8 cell growth in a cell viability assay.
# KM-H2 = assay type: functional, cell-based, Homo sapiens; settings: Homo sapiens, KM-H2;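 note: growth inhibition of KM-H2 cells, read out by a cell viability assay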
# Description: SANGER: Inhibition of human KM-H2 cell growth in a cell viability assay.
# RS4-11 = assay type: functional, cell-based, Homo sapiens; settings: Homo sapiens, RS4-11;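 note: growth inhibition of RS4-11 cells, read out by a cell viability assay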
# Description: SANGER: Inhibition of human RS4-11 cell growth in a cell viability assay.
# SW982 = assay type: functional, cell-based; settings: Homo sapiens;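 note: growth inhibition of SW982 cells, read out with a cell viability assay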
# Description: SANGER: Inhibition of human SW982 cell growth in a cell viability assay.
# SCC-15 = assay type: functional, cell-based, Homo sapiens; settings: Homo sapiens, SCC-15;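 note: growth inhibition of SCC-15 cells, read out with a cell viability assay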
# Description: SANGER: Inhibition of human SCC-15 cell growth in a cell viability assay.
# HAL-01 = assay type: functional, cell-based, Homo sapiens; settings: Homo sapiens, HAL-01;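 note: growth inhibition of human HAL-01 cells, read out with a cell viability assay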
# Description: SANGER: Inhibition of human HAL-01 cell growth in a cell viability assay.
# A498 = assay type: functional, cell-based, Homo sapiens; settings: Homo sapiens, A498;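 note: growth inhibition of human A498 cells, read out with a cell viability assay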
# Description: SANGER: Inhibition of human A498 cell growth in a cell viability assay.
# JAR = assay type: functional, cell-based, Homo sapiens; settings: Homo sapiens, JAR;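 note: growth inhibition of human JAR cells determined with a cell viability assay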
# Description: SANGER: Inhibition of human JAR cell growth in a cell viability assay.
# MHH-PREB-1 = assay type: functional, cell-based, Homo sapiens; settings: Homo sapiens, MHH-PREB-1;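 note: cell viability assay measuring inhibition of proliferation of human MHH-PREB-1 cells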
# Description: SANGER: Inhibition of human MHH-PREB-1 cell growth in a cell viability assay.
# MHH-NB-11 = assay type: functional, cell-based, Homo sapiens; settings: Homo sapiens, MHH-NB-11;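 note: growth inhibition of human MHH-NB-11 cells, read out by a cell viability assay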
# Description: SANGER: Inhibition of human MHH-NB-11 cell growth in a cell viability assay.
# LB1047-RCC = assay type: functional, cell-based, Homo sapiens; settings: Homo sapiens, LB1047-RCC;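 note: inhibition of cell growth, determined with a cell viability assay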
# Description: SANGER: Inhibition of human LB1047-RCC cell growth in a cell viability assay.
# TE-9 = assay type: functional, cell-based, Homo sapiens; settings: Homo sapiens, TE-9;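 note: cell growth inhibition, measured with a cell viability readout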
# Description: SANGER: Inhibition of human TE-9 cell growth in a cell viability assay.
# GR-ST = assay type: functional, cell-based, Homo sapiens; settings: Homo sapiens, GR-ST
# Description: SANGER: Inhibition of human GR-ST cell growth in a cell viability assay.
# MLMA = assay type: functional, cell-based, Homo sapiens; settings: Homo sapiens, MLMA;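 note: growth inhibition of MLMA cells (human), determined through a cell viability readout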
# Description: SANGER: Inhibition of human MLMA cell growth in a cell viability assay.
# COLO-320-HSR = assay type: functional, cell-based, Homo sapiens; settings: Homo sapiens, COLO-320-HSR;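 note: growth inhibition of COLO-320-HSR cells, determined with a cell viability assay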
# Description: SANGER: Inhibition of human COLO-320-HSR cell growth in a cell viability assay.
# GT3TKB = assay type: functional, cell-based, Homo sapiens; settings: Homo sapiens, GT3TKB;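 note: growth inhibition of the cell line, read out with a cell viability assay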
# Description: SANGER: Inhibition of human GT3TKB cell growth in a cell viability assay.
# MC116 = assay type: functional, cell-based, Homo sapiens; settings: Homo sapiens, MC116;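 note: growth inhibition of MC116 cells, read out with a cell viability assay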
# Description: SANGER: Inhibition of human MC116 cell growth in a cell viability assay.
# NMC-G1 = assay type: functional, cell-based, Homo sapiens; settings: Homo sapiens, NMC-G1;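 note: growth inhibition of the NMC-G1 cell line, measured with a cell viability read-out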
# Description: SANGER: Inhibition of human NMC-G1 cell growth in a cell viability assay.
# SW872 = assay type: functional, cell-based, Homo sapiens; settings: Homo sapiens, SW872;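 note: growth inhibition of SW872 cells, read out by a viability assay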
# Description: SANGER: Inhibition of human SW872 cell growth in a cell viability assay.
# NB6 = assay type: functional, cell-based, Homo sapiens; settings: Homo sapiens, NB6;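 note: growth inhibition of NB6 cells, read out by a cell viability assay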
# Description: SANGER: Inhibition of human NB6 cell growth in a cell viability assay.
# CW-2 = assay type: functional, cell-based, Homo sapiens; settings: Homo sapiens, CW-2;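 note: growth inhibition of CW-2 cells, read out by a cell viability assay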
# Description: SANGER: Inhibition of human CW-2 cell growth in a cell viability assay.
# EOL1 = assay type: functional, cell-based, Homo sapiens; settings: Homo sapiens, EOL1;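 note: growth inhibition of EoL-1 cells, read out by a cell viability assay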
# Description: SANGER: Inhibition of human EoL-1-cell cell growth in a cell viability assay.
smiles,measurement,setting,value
O=C(NCCCNc1nc(Nc2cccc(NC(=O)N3CCCC3)c2)ncc1I)c1cccs1 [BX-795],IC50,NCI-H1650,> 5 µM
same,IC50,NCI-H526,> 5 µM
same,IC50,no-10,> 5 µM
same,IC50,LS-411N,> 5 µM
same,IC50,TGBC24TKB,> 5 µM
same,IC50,LB2241-RCC,2.69 µM
same,IC50,DMS-114,> 5 µM
same,IC50,ES3,2.62 µM
same,IC50,DEL,2.76 µM
same,IC50,BE-13,0.705 µM
same,IC50,COLO-684,> 5 µM
same,IC50,8-MG-BA,1.96 µM
same,IC50,K5,> 5 µM
same,IC50,TE-11,1.65 µM
same,IC50,D-247MG,3.2 µM
same,IC50,LS-123,> 5 µM
same,IC50,COLO-824,> 5 µM
same,IC50,C2BBe1,> 5 µM
same,IC50,GB-1,4.64 µM
same,IC50,BT-474,> 5 µM
same,IC50,DB,2.13 µM
same,IC50,GCIY,> 5 µM
same,IC50,SF-268,4.02 µM
same,IC50,DSH1,> 5 µM
same,IC50,BB65-RCC,> 5 µM
same,IC50,TGW,4.58 µM
same,IC50,SJSA-1,> 5 µM
same,IC50,HH,4.65 µM
same,IC50,A253 cell line,4.19 µM
same,IC50,ES8,0.843 µM
same,IC50,KM-H2,> 5 µM
same,IC50,RS4-11,0.726 µM
same,IC50,SW982,0.951 µM
same,IC50,SCC-15,> 5 µM
same,IC50,HAL-01,> 5 µM
same,IC50,A498,4.56 µM
same,IC50,JAR,3.44 µM
same,IC50,MHH-PREB-1,2.81 µM
same,IC50,MHH-NB-11,> 5 µM
same,IC50,LB1047-RCC,1.29 µM
same,IC50,TE-9,> 5 µM
same,IC50,GR-ST,4.98 µM
same,IC50,MLMA,> 5 µM
same,IC50,COLO-320-HSR,> 5 µM
same,IC50,GT3TKB,1.9 µM
same,IC50,MC116,> 5 µM
same,IC50,NMC-G1,> 5 µM
same,IC50,SW872,2.71 µM
same,IC50,NB6,2.74 µM
same,IC50,CW-2,> 5 µM
NC1(c2ccc(-c3nc4ccn5c(=O)[nH]nc5c4cc3-c3ccccc3)cc2)CCC1 [MK-2206],IC50,NCI-H1650,> 4 µM
same,IC50,NCI-H526,> 4 µM
same,IC50,no-10,> 4 µM
same,IC50,LS-411N,> 4 µM
same,IC50,TGBC24TKB,> 4 µM
same,IC50,LB2241-RCC,0.997 µM
same,IC50,DMS-114,3.62 µM
same,IC50,ES3,2.5 µM
same,IC50,DEL,> 4 µM
same,IC50,BE-13,> 4 µM
same,IC50,COLO-684,1.24 µM
same,IC50,8-MG-BA,> 4 µM
same,IC50,TE-11,> 4 µM
same,IC50,D-247MG,> 4 µM
same,IC50,LS-123,> 4 µM
same,IC50,COLO-824,> 4 µM
same,IC50,C2BBe1,> 4 µM
same,IC50,GB-1,> 4 µM
same,IC50,BT-474,> 4 µM
same,IC50,DB,> 4 µM
same,IC50,GCIY,> 4 µM
same,IC50,SF-268,> 4 µM
same,IC50,DSH1,> 4 µM
same,IC50,BB65-RCC,> 4 µM
same,IC50,TGW,> 4 µM
same,IC50,SJSA-1,> 4 µM
same,IC50,HH,0.303 µM
same,IC50,A253 cell line,> 4 µM
same,IC50,EOL1,3.07 µM
same,IC50,ES8,2.49 µM
same,IC50,KM-H2,> 4 µM
same,IC50,RS4-11,0.346 µM
same,IC50,SW982,> 4 µM
same,IC50,SCC-15,> 4 µM
same,IC50,HAL-01,0.621 µM
same,IC50,A498,> 4 µM
same,IC50,JAR,> 4 µM
same,IC50,MHH-PREB-1,3.72 µM
same,IC50,MHH-NB-11,> 4 µM
same,IC50,LB1047-RCC,2.24 µM
same,IC50,TE-9,> 4 µM
same,IC50,GR-ST,3.05 µM
same,IC50,MLMA,> 4 µM
same,IC50,COLO-320-HSR,> 4 µM
same,IC50,GT3TKB,> 4 µM
same,IC50,MC116,> 4 µM
same,IC50,NMC-G1,> 4 µM
same,IC50,SW872,> 4 µM
same,IC50,NB6,> 4 µM
same,IC50,CW-2,> 4 µM
C/C(=C\c1csc(C)n1)[C@@H]1C[C@@H]2O[C@]2(C)CCC[C@H](C)[C@H](O)[C@@H](C)C(=O)C(C)(C)[C@@H](O)CC(=O)O1 [PATUPILONE],IC50,NCI-H1650,0.00954 µM
same,IC50,NCI-H526,0.00724 µM
same,IC50,no-10,0.00556 µM
same,IC50,LS-411N,0.0236 µM
same,IC50,TGBC24TKB,0.00275 µM
same,IC50,LB2241-RCC,0.00555 µM
same,IC50,DMS-114,> 0.032 µM
same,IC50,ES3,0.015 µM
same,IC50,DEL,0.00429 µM
same,IC50,BE-13,0.0073 µM
same,IC50,COLO-684,0.00697 µM
same,IC50,8-MG-BA,0.00478 µM
same,IC50,K5,0.00559 µM
same,IC50,TE-11,0.0012 µM
same,IC50,LS-123,0.00096 µM
same,IC50,COLO-824,0.0233 µM
same,IC50,C2BBe1,> 0.032 µM
same,IC50,GB-1,0.00119 µM
same,IC50,BT-474,0.0132 µM
same,IC50,DB,0.00711 µM
same,IC50,GCIY,0.00659 µM
same,IC50,SF-268,0.00466 µM
same,IC50,DSH1,> 0.032 µM
same,IC50,BB65-RCC,0.000631 µM
same,IC50,TGW,0.0135 µM
same,IC50,SJSA-1,0.00209 µM
same,IC50,HH,0.0098 µM
same,IC50,A253 cell line,0.0103 µM
same,IC50,EOL1,0.0129 µM
same,IC50,ES8,0.00165 µM
same,IC50,KM-H2,0.00906 µM
same,IC50,RS4-11,0.00202 µM
same,IC50,SW982,0.000999 µM
same,IC50,SCC-15,0.00598 µM
same,IC50,HAL-01,0.00502 µM
same,IC50,A498,> 0.032 µM
same,IC50,JAR,> 0.032 µM
same,IC50,MHH-PREB-1,0.00751 µM
same,IC50,MHH-NB-11,0.0152 µM
same,IC50,LB1047-RCC,0.002 µM
same,IC50,TE-9,0.00157 µM
same,IC50,GR-ST,0.00391 µM
same,IC50,MLMA,0.0141 µM
same,IC50,COLO-320-HSR,0.00521 µM
same,IC50,GT3TKB,0.000655 µM
same,IC50,MC116,0.00386 µM
same,IC50,NMC-G1,0.00175 µM
same,IC50,SW872,0.000774 µM
same,IC50,NB6,0.0175 µM
same,IC50,CW-2,> 0.032 µM
CS(=O)(=O)N1CCN(Cc2cc3nc(-c4cccc5[nH]ncc45)nc(N4CCOCC4)c3s2)CC1 [PICTILISIB],IC50,NCI-H1650,> 4 µM
same,IC50,NCI-H526,1.91 µM
same,IC50,no-10,> 4 µM
same,IC50,LS-411N,> 4 µM
same,IC50,TGBC24TKB,1.08 µM
same,IC50,LB2241-RCC,0.304 µM
same,IC50,DMS-114,> 4 µM
same,IC50,ES3,> 4 µM
same,IC50,DEL,> 4 µM
same,IC50,BE-13,> 4 µM
same,IC50,COLO-684,0.523 µM
same,IC50,8-MG-BA,> 4 µM
same,IC50,TE-11,> 4 µM
same,IC50,D-247MG,> 4 µM
same,IC50,LS-123,> 4 µM
same,IC50,COLO-824,> 4 µM
same,IC50,C2BBe1,> 4 µM
same,IC50,GB-1,> 4 µM
same,IC50,BT-474,> 4 µM
same,IC50,DB,> 4 µM
same,IC50,GCIY,0.434 µM
same,IC50,SF-268,> 4 µM
same,IC50,DSH1,> 4 µM
same,IC50,BB65-RCC,> 4 µM
same,IC50,TGW,> 4 µM
same,IC50,SJSA-1,3.71 µM
same,IC50,HH,0.111 µM
same,IC50,A253 cell line,> 4 µM
same,IC50,ES8,0.811 µM
same,IC50,KM-H2,> 4 µM
same,IC50,RS4-11,0.262 µM
same,IC50,SW982,> 4 µM
same,IC50,SCC-15,> 4 µM
same,IC50,HAL-01,0.207 µM
same,IC50,A498,1.3 µM
same,IC50,JAR,> 4 µM
same,IC50,MHH-PREB-1,0.114 µM
same,IC50,MHH-NB-11,> 4 µM
same,IC50,LB1047-RCC,0.523 µM
same,IC50,TE-9,> 4 µM
same,IC50,GR-ST,> 4 µM
same,IC50,MLMA,> 4 µM
same,IC50,COLO-320-HSR,> 4 µM
same,IC50,GT3TKB,> 4 µM
same,IC50,MC116,> 4 µM
same,IC50,NMC-G1,> 4 µM
same,IC50,SW872,0.728 µM
same,IC50,NB6,> 4 µM
same,IC50,CW-2,> 4 µM
